Test results from the NIST ThermoML archive (doi:10.1021/acs.jced.8b01146).
Where “and” joins values, the source holds several entries; their conditions need not be identical. Equal entries are not always repeated. Numbers after ± are expanded uncertainties.

Key:
[1] = xn = mol fraction of the nth substance listed; details: 100 kPa, Liquid, Vibrating tube method
[2] = excess molar enthalpy (molar enthalpy of mixing); xn = mol fraction of the nth substance listed; details: 100 kPa, Liquid, Calvet calorimetry

CC1CCCC(=O)O1 (configuration not stated) [2H-pyran-2-one, tetrahydro-6-methyl-] + O
mass density ([1]; 288.15 K, x1 = 0.001653): 999.935 ± 0.037 kg/m3
mass density ([1]; 288.15 K, x1 = 0.002149): 1000.17 ± 0.038 kg/m3
mass density ([1]; 288.15 K, x1 = 0.002478): 1000.35 ± 0.039 kg/m3
mass density ([1]; 288.15 K, x1 = 0.002643): 1000.42 ± 0.039 kg/m3
mass density ([1]; 288.15 K, x1 = 0.003302): 1000.74 ± 0.04 kg/m3 and 1000.76 ± 0.04 kg/m3
mass density ([1]; 288.15 K, x1 = 0.004124): 1001.15 ± 0.042 kg/m3
mass density ([1]; 288.15 K, x1 = 0.004945): 1001.54 ± 0.044 kg/m3
mass density ([1]; 298.15 K, x1 = 0.001158): 997.57 ± 0.037 kg/m3
mass density ([1]; 298.15 K, x1 = 0.001653): 997.788 ± 0.038 kg/m3
mass density ([1]; 298.15 K, x1 = 0.002147): 998.009 ± 0.038 kg/m3
mass density ([1]; 298.15 K, x1 = 0.002641): 998.225 ± 0.04 kg/m3
mass density ([1]; 298.15 K, x1 = 0.0033): 998.509 ± 0.59 kg/m3
mass density ([1]; 298.15 K, x1 = 0.003306): 998.52 ± 1.1 kg/m3
mass density ([1]; 298.15 K, x1 = 0.003307): 998.507 ± 0.59 kg/m3
mass density ([1]; 298.15 K, x1 = 0.004125): 998.876 ± 0.89 kg/m3
mass density ([1]; 298.15 K, x1 = 0.004129): 998.875 ± 0.038 kg/m3
mass density ([1]; 298.15 K, x1 = 0.004131): 998.861 ± 0.4 kg/m3
mass density ([1]; 298.15 K, x1 = 0.004946): 999.23 ± 0.29 kg/m3
mass density ([1]; 298.15 K, x1 = 0.004951): 999.209 ± 1.1 kg/m3
mass density ([1]; 298.15 K, x1 = 0.004953): 999.206 ± 0.29 kg/m3
mass density ([1]; 308.15 K, x1 = 0.001656): 994.712 ± 0.04 kg/m3
mass density ([1]; 308.15 K, x1 = 0.002482): 995.04 ± 0.039 kg/m3
mass density ([1]; 308.15 K, x1 = 0.003307): 995.379 ± 0.04 kg/m3 and 995.363 ± 0.04 kg/m3
mass density ([1]; 308.15 K, x1 = 0.00413): 995.684 ± 0.041 kg/m3
mass density ([1]; 308.15 K, x1 = 0.004131): 995.714 ± 0.041 kg/m3
mass density ([1]; 308.15 K, x1 = 0.004953): 995.986 ± 0.038 kg/m3
mass density ([1]; 308.15 K, x1 = 0.004954): 996.02 ± 0.038 kg/m3
mass density ([1]; 318.15 K, x1 = 0.001655): 990.83 ± 0.04 kg/m3 and 990.824 ± 0.04 kg/m3
mass density ([1]; 318.15 K, x1 = 0.00248): 991.131 ± 0.041 kg/m3
mass density ([1]; 318.15 K, x1 = 0.002481): 991.124 ± 0.041 kg/m3
mass density ([1]; 318.15 K, x1 = 0.003305): 991.433 ± 0.041 kg/m3
mass density ([1]; 318.15 K, x1 = 0.003306): 991.423 ± 0.041 kg/m3
mass density ([1]; 318.15 K, x1 = 0.004127): 991.726 ± 0.042 kg/m3
mass density ([1]; 318.15 K, x1 = 0.004129): 991.723 ± 0.042 kg/m3
mass density ([1]; 318.15 K, x1 = 0.004948): 992.021 ± 0.054 kg/m3
mass density ([1]; 318.15 K, x1 = 0.004952): 992.018 ± 0.054 kg/m3
excess molar enthalpy ([2]; 288.15 K, x1 = 0.001653): -0.00342 ± 0.000215 kcal/mol
excess molar enthalpy ([2]; 288.15 K, x1 = 0.002149): -0.00437 ± 0.000222 kcal/mol
excess molar enthalpy ([2]; 288.15 K, x1 = 0.002478): -0.00505 ± 0.000234 kcal/mol
excess molar enthalpy ([2]; 288.15 K, x1 = 0.002643): -0.00535 ± 0.000239 kcal/mol
excess molar enthalpy ([2]; 288.15 K, x1 = 0.003302): -0.0066 kcal/mol and -0.00666 kcal/mol
excess molar enthalpy ([2]; 288.15 K, x1 = 0.004124): -0.00818 ± 0.000287 kcal/mol
excess molar enthalpy ([2]; 288.15 K, x1 = 0.004945): -0.00973 ± 0.000311 kcal/mol
excess molar enthalpy ([2]; 298.15 K, x1 = 0.001158): -0.00194 ± 0.000201 kcal/mol
excess molar enthalpy ([2]; 298.15 K, x1 = 0.001653): -0.00273 ± 0.000208 kcal/mol
excess molar enthalpy ([2]; 298.15 K, x1 = 0.002147): -0.00352 ± 0.000215 kcal/mol
excess molar enthalpy ([2]; 298.15 K, x1 = 0.002641): -0.00431 ± 0.000222 kcal/mol
excess molar enthalpy ([2]; 298.15 K, x1 = 0.0033): -0.00534 ± 0.000239 kcal/mol
excess molar enthalpy ([2]; 298.15 K, x1 = 0.003306): -0.00541 ± 0.000359 kcal/mol
excess molar enthalpy ([2]; 298.15 K, x1 = 0.003307): -0.00536 ± 0.000239 kcal/mol
excess molar enthalpy ([2]; 298.15 K, x1 = 0.004125): -0.00661 ± 0.000311 kcal/mol
excess molar enthalpy ([2]; 298.15 K, x1 = 0.004129): -0.00669 ± 0.00086 kcal/mol
excess molar enthalpy ([2]; 298.15 K, x1 = 0.004131): -0.00664 ± 0.000335 kcal/mol
excess molar enthalpy ([2]; 298.15 K, x1 = 0.004946): -0.0079 ± 0.000693 kcal/mol
excess molar enthalpy ([2]; 298.15 K, x1 = 0.004951): -0.00787 ± 0.00043 kcal/mol
excess molar enthalpy ([2]; 298.15 K, x1 = 0.004953): -0.00781 ± 0.000693 kcal/mol
excess molar enthalpy ([2]; 308.15 K, x1 = 0.001656): -0.00216 ± 0.000203 kcal/mol
excess molar enthalpy ([2]; 308.15 K, x1 = 0.002482): -0.00315 ± 0.000213 kcal/mol
excess molar enthalpy ([2]; 308.15 K, x1 = 0.003307): -0.00409 kcal/mol and -0.00415 kcal/mol
excess molar enthalpy ([2]; 308.15 K, x1 = 0.00413): -0.00511 ± 0.000234 kcal/mol
excess molar enthalpy ([2]; 308.15 K, x1 = 0.004131): -0.00506 ± 0.000234 kcal/mol
excess molar enthalpy ([2]; 308.15 K, x1 = 0.004953): -0.00603 ± 0.000239 kcal/mol
excess molar enthalpy ([2]; 308.15 K, x1 = 0.004954): -0.00601 ± 0.000239 kcal/mol
excess molar enthalpy ([2]; 318.15 K, x1 = 0.001655): -0.00147 kcal/mol and -0.00148 kcal/mol
excess molar enthalpy ([2]; 318.15 K, x1 = 0.00248): -0.0022 ± 0.000203 kcal/mol
excess molar enthalpy ([2]; 318.15 K, x1 = 0.002481): -0.00221 ± 0.000203 kcal/mol
excess molar enthalpy ([2]; 318.15 K, x1 = 0.003305): -0.0029 ± 0.00021 kcal/mol
excess molar enthalpy ([2]; 318.15 K, x1 = 0.003306): -0.00293 ± 0.00021 kcal/mol
excess molar enthalpy ([2]; 318.15 K, x1 = 0.004127): -0.0036 ± 0.000215 kcal/mol
excess molar enthalpy ([2]; 318.15 K, x1 = 0.004129): -0.00363 ± 0.000215 kcal/mol
excess molar enthalpy ([2]; 318.15 K, x1 = 0.004948): -0.00429 ± 0.000335 kcal/mol
excess molar enthalpy ([2]; 318.15 K, x1 = 0.004952): -0.00432 ± 0.000335 kcal/mol
